Patent US8389523B2, “Substituted quinoxaline and an agrochemical composition thereof” (Kumiai Chemical Industry Co., Ltd., priority 2007, dated 2013)

What was measured:
Type in all cases: in vivo
Set-up in all cases: scale not given here
[1] = tested on: Amaranthus viridis L.; assay: Herbicidal effects in upland field foliar treatment (Test Example 3); details: criteria of Table 138; for herbicidal effect (index) on Amaranthus viridis L.: 1000 g active ingredient per hectare, 14th day after treatment; for herbicidal effects on Amaranthus viridis L.: 1000 g of the active ingredient per hectare, 14th day after the treatment, wettable powder
Procedure, shortened: (§1)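 Herbicidal activity is rated visually on a fixed scale 14 days after foliar application. Plants raised from seed in upland field soil for two weeks under glass receive a water dilution of a wettable powder at 1000 g a.i. per hectare in 1000 L/ha.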

[2] = tested on: Echinochloa crus-galli (L.) P. Beauv. var. crus-galli; assay: as above; details: criteria of Table 138; for herbicidal effect (index) on Echinochloa crus-galli (L.) P. Beauv. var. crus-galli: 1000 g active ingredient per hectare, 14th day after treatment; for herbicidal effects on Echinochloa crus-galli (L.) P. Beauv. var. crus-galli: 1000 g of the active ingredient per hectare, 14th day after the treatment, wettable powder
Procedure, shortened: as §1

[3] = tested on: Abutilon theophrasti medicus; assay: as above; details: criteria of Table 138; for herbicidal effect (index) on Abutilon theophrasti medicus: 1000 g active ingredient per hectare, 14th day after treatment; for herbicidal effects on Abutilon theophrasti medicus: 1000 g of the active ingredient per hectare, 14th day after the treatment, wettable powder
Procedure, shortened: as §1

[4] = tested on: Amaranthus viridis L.; assay: Herbicidal effects in upland field soil treatment (Test Example 2); details: 1000 g active ingredient per hectare, 21st day after treatment, criteria of Table 138
Procedure, shortened: (§2)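 Herbicidal effect was rated visually against set criteria on the 21st day after a pre-emergence soil-surface spray of diluted wettable powder delivering 1000 g active ingredient per hectare (1000 L/ha). Seeds had been sown and covered in upland field soil; plants grew in a greenhouse.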

[5] = tested on: Abutilon theophrasti medicus; assay: as above; details: 1000 g active ingredient per hectare, 21st day after treatment, criteria of Table 138
Procedure, shortened: as §2

[6] = tested on: Monochoria vaginalis (Burm. f.) Presl var. plantaginea (Roxb.) Solms-Laub.; assay: Herbicidal effects in paddy field soil treatment (Test Example 1); details: for Herbicidal effects index, Monochoria vaginalis (Burm. f.) Presl var. plantaginea (Roxb.) Solms-Laub.: paddy field soil treatment, 1000 g of the active ingredient per hectare, wettable powder added dropwise on water surface, 21st day after treatment
Procedure, shortened: (§3)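 Scoring of herbicidal effect took place 21 days after treatment, using a rating scale, on plants grown in a greenhouse. The test compound, formulated as a wettable powder and diluted with water, had been applied dropwise to the flood water at 1000 g active ingredient per hectare, one day after sowing into puddled paddy soil held under 3 cm of water.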

[7] = tested on: Scirpus juncoides Roxb. var. ohwianus. T. Koyama; assay: as above; details: for Herbicidal effects index, Scirpus juncoides Roxb. var. ohwianus. T. Koyama: paddy field soil treatment, 1000 g of the active ingredient per hectare, wettable powder added dropwise on water surface, 21st day after treatment
Procedure, shortened: as §3

[8] = tested on: Echinochloa oryzicola Vasing; assay: as above; details: for Herbicidal effects index, Echinochloa oryzicola Vasing: paddy field soil treatment, 1000 g of the active ingredient per hectare, wettable powder added dropwise on water surface, 21st day after treatment
Procedure, shortened: as §3

[9] = paddy field soil treatment (Test Example 1), criteria of Table 138

Structure (SMILES) | herbicidal effect (index) on Amaranthus viridis L. [1] | herbicidal effect (index) on Echinochloa crus-galli (L.) P. Beauv. var. crus-galli [2] | herbicidal effect (index) on Abutilon theophrasti medicus [3] | herbicidal effect (index) on Amaranthus viridis L. [4] | herbicidal effect (index) on Abutilon theophrasti medicus [5] | Herbicidal effects index, Monochoria vaginalis (Burm. f.) Presl var. plantaginea (Roxb.) Solms-Laub. [6] | Herbicidal effects index, Scirpus juncoides Roxb. var. ohwianus. T. Koyama [7] | Herbicidal effects index, Echinochloa oryzicola Vasing [8] | herbicidal effects on Amaranthus viridis L. [1] | herbicidal effects on Echinochloa crus-galli (L.) P. Beauv. var. crus-galli [2] | herbicidal effects on Abutilon theophrasti medicus [3] | herbicidal effect (index) on Monochoria vaginalis (Burm. f.) Presl var. plantaginea (Roxb.) Solms-Laub. [6, 9] | herbicidal effect (index) on Scirpus juncoides Roxb. var. ohwianus. T. Koyama [7, 9] | herbicidal effect (index) on Echinochloa oryzicola Vasing [8, 9]
Cn1c(=O)c(C(=O)C2=C(O)CCCC2=O)nc2ccc(F)cc21 [I-221] | 5 | 4 | 5 | 5 | 5 | 5 | 5 | 5 |  |  |  |  |  | 
O=C1CCCC(O)=C1C(=O)c1nc2cccc(F)c2n(-c2ccccc2)c1=O [II-243] |  |  |  | 5 | 5 | 5 | 5 | 5 | 5 | 5 | 5 |  |  | 
O=C1CCCC(O)=C1C(=O)c1nc2cc(F)ccc2n(-c2ccccc2)c1=O [II-237] |  |  |  | 5 | 5 | 5 | 5 | 5 | 5 | 5 | 5 |  |  | 
O=C1CCCC(O)=C1C(=O)c1ccc2ccccc2n1 [comparative compound B, reference compound] |  |  |  | 2 | 2 |  |  |  | 1 | 0 | 5 | 0 | 0 | 0
COc1cc(F)c(-n2c(=O)c(C(=O)C3=C(O)CCCC3=O)nc3ccccc32)cc1F [II-219] |  |  |  | 5 | 5 | 5 | 5 | 5 | 5 | 5 | 5 |  |  | 
COc1c(F)cc(-n2c(=O)c(C(=O)C3=C(O)CCCC3=O)nc3ccccc32)cc1F [II-220] |  |  |  | 5 | 5 | 5 | 5 | 5 | 5 | 5 | 5 |  |  | 
O=C1CCCC(O)=C1C(=O)c1nc2ccccc2n(-c2ccccc2F)c1=O [II-6] | 5 | 5 | 5 | 5 | 5 | 5 | 5 | 5 |  |  |  |  |  | 
O=C1CCCC(O)=C1C(=O)c1nc2c(F)cccc2n(-c2ccccc2)c1=O [II-233] |  |  |  | 5 | 5 | 5 | 5 | 5 | 5 | 5 | 5 |  |  | 
Cc1cc(-n2c(=O)c(C(=O)C3=C(O)CCCC3=O)nc3ccccc32)sn1 [I-156] | 5 | 5 | 5 | 5 | 5 | 5 | 5 | 5 |  |  |  |  |  | 
Cn1c(=O)c(C(=O)C2=C(O)CCCC2=O)nc2ccc(Cl)cc21 [I-227] | 5 | 4 | 5 | 5 | 5 | 5 | 5 | 5 |  |  |  |  |  | 
COc1ccc(-n2c(=O)c(C(=O)C3=C(O)CCCC3=O)nc3ccccc32)cn1 [I-189] | 5 | 4 | 5 | 5 | 5 | 5 | 5 | 5 |  |  |  |  |  | 
CC(C)Oc1ccc(-n2c(=O)c(C(=O)C3=C(O)CCCC3=O)nc3ccccc32)cc1 [II-75] |  |  |  | 5 | 4 | 5 | 5 | 5 | 5 | 5 | 4 |  |  | 
O=C1CCCC(O)=C1C(=O)c1nc2ccccc2n(-c2ccc(C(F)(F)F)cn2)c1=O [I-179] | 5 | 5 | 5 | 5 | 5 | 5 | 5 | 5 |  |  |  |  |  | 
O=C1CCCC=C1C(=O)c1nc2ccccc2n(-c2ccccc2[N+](=O)[O-])c1=O [II-129] |  |  |  | 5 | 5 | 5 | 5 | 5 | 5 | 5 | 5 |  |  | 
CC1=NOC(Cn2c(=O)c(C(=O)C3=C(O)CCCC3=O)nc3ccccc32)C1 (stereo not drawn) [I-212] | 5 | 5 | 4 | 5 | 5 | 5 | 5 | 5 |  |  |  |  |  | 
